Where two headings read alike, the source gives them in different places.
Columns and labels:
[1] = tested on: HLA-A*24:02-restricted CD8+ T cells; assay type: cell-based, human; details: […]
HLA-A*24:02 = HLA-A*24:02 (Homo sapiens, UniProt P04439, D101N/D140Y/D185E/E176V/E190D/F33S/G103R/G107R/I119L/I121M/I306V/K335N/L105A/L180Q/L300P/N151K/N90K/Q86E/Q94H/R106L/R138H/R89G/T104I/T345S/V100E/W191G/Y123F); assay: HLA stabilization assay using RMA-S-A2402 cells; assay type: binding; details: for MFI, HLA-A2402 (APC), representative staining: RMA-S-A2402 cells, Suppl. Fig. 3b (for Fig. 4a, 4b), peptide(-) 14.8, 26 °C (Maximum) 32.7
[2] = convalescent donor C2, 45.290 weeks since PCR-confirmed diagnosis, peptide-pulsed C1R-A2402
[3] = convalescent donor C3, 2.430 weeks since PCR-confirmed diagnosis, peptide-pulsed C1R-A2402
[4] = convalescent donor C4, 35.000 weeks since PCR-confirmed diagnosis, peptide-pulsed C1R-A2402
[5] = convalescent donor C5, 41.430 weeks since PCR-confirmed diagnosis, peptide-pulsed C1R-A2402
[6] = convalescent donor C6, 20.000 weeks since PCR-confirmed diagnosis, peptide-pulsed C1R-A2402
[7] = convalescent donor C7, 21.710 weeks since PCR-confirmed diagnosis, peptide-pulsed C1R-A2402
[8] = convalescent donor C8, 47.860 weeks since PCR-confirmed diagnosis, peptide-pulsed C1R-A2402
[9] = convalescent donor C9, 21.860 weeks since PCR-confirmed diagnosis, peptide-pulsed C1R-A2402
[10] = convalescent donor C10, 24.570 weeks since PCR-confirmed diagnosis, peptide-pulsed C1R-A2402
[11] = convalescent donor C11, 24.290 weeks since PCR-confirmed diagnosis, peptide-pulsed C1R-A2402
[12] = vaccinated donor V1, 19.000 weeks since 2nd dose, C1R-A2402 pre-pulsed with 1 μM peptide
[13] = vaccinated donor V2, 9.570 weeks since 2nd dose, C1R-A2402 pre-pulsed with 1 μM peptide
[14] = vaccinated donor V3, 8.860 weeks since 2nd dose, C1R-A2402 pre-pulsed with 1 μM peptide
[15] = vaccinated donor V4, 10.430 weeks since 2nd dose, C1R-A2402 pre-pulsed with 1 μM peptide
[16] = vaccinated donor V5, 10.570 weeks since 2nd dose, C1R-A2402 pre-pulsed with 1 μM peptide
[17] = vaccinated donor V6, 9.570 weeks since 2nd dose, C1R-A2402 pre-pulsed with 1 μM peptide
[18] = vaccinated donor V7, 10.140 weeks since 2nd dose, C1R-A2402 pre-pulsed with 1 μM peptide
[19] = vaccinated donor V8, 9.860 weeks since 2nd dose, C1R-A2402 pre-pulsed with 1 μM peptide
[20] = vaccinated donor V9, 20.570 weeks since 2nd dose, C1R-A2402 pre-pulsed with 1 μM peptide
[21] = vaccinated donor V10, 2.000 weeks since 2nd dose, C1R-A2402 pre-pulsed with 1 μM peptide
[22] = vaccinated donor V11, 1.430 weeks since 2nd dose, C1R-A2402 pre-pulsed with 1 μM peptide
[23] = vaccinated donor V12, 1.000 weeks since 2nd dose, C1R-A2402 pre-pulsed with 1 μM peptide
[24] = vaccinated donor V13, 9.000 weeks since 2nd dose, C1R-A2402 pre-pulsed with 1 μM peptide
[25] = vaccinated donor V14, 2.000 weeks since 2nd dose, C1R-A2402 pre-pulsed with 1 μM peptide
[26] = vaccinated donor V15, 6.860 weeks since 2nd dose, C1R-A2402 pre-pulsed with 1 μM peptide
[27] = vaccinated donor V16, 8.860 weeks since 2nd dose, C1R-A2402 pre-pulsed with 1 μM peptide
[28] = vaccinated donor V17, 4.140 weeks since 2nd dose, C1R-A2402 pre-pulsed with 1 μM peptide

Sequence: YYHKNNKSW [S-YW9]
- IFNg-producing cells among CD8 T cells (%) [1, 2]: 0.653%
- IFNg-producing cells among CD8 T cells (%) [1, 3]: 0.000%
- IFNg-producing cells among CD8 T cells (%) [1, 4]: 0.000%
- IFNg-producing cells among CD8 T cells (%) [1, 5]: 0.000%
- IFNg-producing cells among CD8 T cells (%) [1, 6]: 0.000%
- IFNg-producing cells among CD8 T cells (%) [1, 7]: 0.140%
- IFNg-producing cells among CD8 T cells (%) [1, 8]: 0.310%
- IFNg-producing cells among CD8 T cells (%) [1, 9]: 0.000%
- IFNg-producing cells among CD8 T cells (%) [1, 10]: 0.000%
- IFNg-producing cells among CD8 T cells (%) [1, 11]: 0.550%
- IFNg-producing cells among CD8 T cells (%) [1, 12]: 0.268%
- IFNg-producing cells among CD8 T cells (%) [1, 13]: 0%
- IFNg-producing cells among CD8 T cells (%) [1, 14]: 0.343%
- IFNg-producing cells among CD8 T cells (%) [1, 15]: 0%
- IFNg-producing cells among CD8 T cells (%) [1, 16]: 0.139%
- IFNg-producing cells among CD8 T cells (%) [1, 17]: 0.061%
- IFNg-producing cells among CD8 T cells (%) [1, 18]: 0.182%
- IFNg-producing cells among CD8 T cells (%) [1, 19]: 0.035%
- IFNg-producing cells among CD8 T cells (%) [1, 20]: 0.232%
- IFNg-producing cells among CD8 T cells (%) [1, 21]: 0%
- IFNg-producing cells among CD8 T cells (%) [1, 22]: 0.769%
- IFNg-producing cells among CD8 T cells (%) [1, 23]: 0%
- IFNg-producing cells among CD8 T cells (%) [1, 24]: 0%
- IFNg-producing cells among CD8 T cells (%) [1, 25]: 0%
- IFNg-producing cells among CD8 T cells (%) [1, 26]: 0.709%
- IFNg-producing cells among CD8 T cells (%) [1, 27]: 0.019%
- IFNg-producing cells among CD8 T cells (%) [1, 28]: 0.154%
- MFI, HLA-A2402 (APC), representative staining (HLA-A*24:02): 10.2
- binding to HLA-A*24:02 (in words) (HLA-A*24:02; […], 16 peptides tested at 100 μM): did not bind

Sequence: YYVGYLQPRTF [S-YF11]
- IFNg-producing cells among CD8 T cells (%) [1, 2]: 0.461%
- IFNg-producing cells among CD8 T cells (%) [1, 3]: 0.120%
- IFNg-producing cells among CD8 T cells (%) [1, 4]: 0.300%
- IFNg-producing cells among CD8 T cells (%) [1, 5]: 0.738%
- IFNg-producing cells among CD8 T cells (%) [1, 6]: 0.200%
- IFNg-producing cells among CD8 T cells (%) [1, 7]: 0.450%
- IFNg-producing cells among CD8 T cells (%) [1, 8]: 0.930%
- IFNg-producing cells among CD8 T cells (%) [1, 9]: 0.000%
- IFNg-producing cells among CD8 T cells (%) [1, 10]: 0.090%
- IFNg-producing cells among CD8 T cells (%) [1, 11]: 0.000%
- IFNg-producing cells among CD8 T cells (%) [1, 12]: 0.469%
- IFNg-producing cells among CD8 T cells (%) [1, 13]: 0.861%
- IFNg-producing cells among CD8 T cells (%) [1, 14]: 0.031%
- IFNg-producing cells among CD8 T cells (%) [1, 15]: 0%
- IFNg-producing cells among CD8 T cells (%) [1, 16]: 0%
- IFNg-producing cells among CD8 T cells (%) [1, 17]: 0.019%
- IFNg-producing cells among CD8 T cells (%) [1, 18]: 0%
- IFNg-producing cells among CD8 T cells (%) [1, 19]: 0%
- IFNg-producing cells among CD8 T cells (%) [1, 20]: 0%
- IFNg-producing cells among CD8 T cells (%) [1, 21]: 0%
- IFNg-producing cells among CD8 T cells (%) [1, 22]: 0%
- IFNg-producing cells among CD8 T cells (%) [1, 23]: 0%
- IFNg-producing cells among CD8 T cells (%) [1, 24]: 0.015%
- IFNg-producing cells among CD8 T cells (%) [1, 25]: 0%
- IFNg-producing cells among CD8 T cells (%) [1, 26]: 0.234%
- IFNg-producing cells among CD8 T cells (%) [1, 27]: 0.141%
- IFNg-producing cells among CD8 T cells (%) [1, 28]: 0.134%
- MFI, HLA-A2402 (APC), representative staining (HLA-A*24:02): 26.7

From article PMC9447987, “Long-term memory CD8^+ T cells specific for SARS-CoV-2 in individuals who received the BNT162b2 mRNA vaccine” (Nature Communications, 2022)
